According to patent US20140228299A1, “PROPHYLACTIC AND THERAPEUTIC AGENT FOR NEUROLOGICAL DISEASES USING LIPOPROTEINS AND PROPHYLACTIC AND THERAPEUTIC METHOD FOR NEUROLOGICAL DISEASES” (National University Corporation Tokyo Medical and Dental …, priority 2011, published 2014):

Tested on: glycogen synthase kinase 3β (GSK3β)
Assay: GSK3β phosphorylation level in RGC after glutamic acid treatment (Western blotting)
Type: cell-based, rat
Details: cells collected 18 hours after treatment with glutamic acid
Description: The apoptosis-like cells were computed by the nucleus staining with Hoechst 33342. […] The retinal glia cells were collected in 18 hours after treatment with glutamic acid, followed by Western blotting in which a rabbit anti-phosphorylated GSK3β (p-GSK3β) antibody and a rabbit anti-GSK3β antibody were used.
The immune blotting used in the above example was carried out in a manner as will be described below. Specifically, the lipoprotein obtained in each of the above examples was dissolved in 62.5 mM Tris-HCl (pH 6.8), 10% glycerol, 2% sodium dodecyl sulfate (SDS) and 5% β-mercaptoethanol (a sample buffer), and the resulting mixture was boiled for 5 minutes. The resulting protein was separated by electrophoresis using 0.1% SDS-containing polyacrylamide gel and then transferred to a polyvinylidene difluoride membrane. […]

Substance: LP: reconstituted lipoprotein of POPC, cholesterol and recombinant human apolipoprotein E3
- phosphorylation level of GSK3β: recovery
